Experimental data reported in publication PMC7403315, “Cyclic peptide FXII inhibitor provides safe anticoagulation in a thrombosis model and in artificial lungs” (Nature Communications, 2020).
Values joined by “and” are separate entries in the source; they are usually repeats but may differ in a detail not shown here. Equal values may be shown once. Starred links: 1 amine or outer side, 2 acyl side, 3 side chain; linkers in the order of their positions; H or OH if unused. Positions of bridges follow the written chain, without caps; N, C: chain ends. Non-standard residues stand in square brackets, D forms with d. Residues, ends and D or L forms follow the SMILES beside them. TATA = O=C(CC[*:1])N1CN(C(=O)CC[*:2])CN(C(=O)CC[*:3])C1; Phe(4-F) = N[C@@H](Cc1ccc(F)cc1)C(=O)O; β3hR = N=C(N)NCCC[C@H](N)CC(=O)O

What was measured:
Experiment in all cases: Specificity profiling, residual protease activity
Assay type in all cases: biochemical
[1] = target: T1, factor Xa (Homo sapiens, UniProt P00742)
T1 construct: (Molecular Innovations) 0.05 nM, factor VIIa (Haematologic Technologies) 50 nM, factor Xa; purchased Haematologic Technologies
T1 sequence (P00742 235-488 limits assumed): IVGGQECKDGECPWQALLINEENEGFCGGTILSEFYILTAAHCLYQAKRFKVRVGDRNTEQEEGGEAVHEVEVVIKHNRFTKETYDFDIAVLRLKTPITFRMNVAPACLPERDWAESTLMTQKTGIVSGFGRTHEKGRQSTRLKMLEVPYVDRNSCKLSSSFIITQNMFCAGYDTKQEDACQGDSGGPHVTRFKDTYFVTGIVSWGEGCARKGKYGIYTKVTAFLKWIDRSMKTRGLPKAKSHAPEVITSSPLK
T1 sequence (P00742 41-179 limits assumed): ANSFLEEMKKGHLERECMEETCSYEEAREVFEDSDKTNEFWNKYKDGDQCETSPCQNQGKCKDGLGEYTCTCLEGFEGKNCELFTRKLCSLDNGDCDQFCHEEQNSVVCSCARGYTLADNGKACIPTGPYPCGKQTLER
Protocol: (§1) Protease inhibition assays
(§2) The inhibitory activity of peptides was determined by measuring the residual protease activity with a fluorogenic substrate. The assay was performed in buffer containing 10 mM Tris-Cl, pH […]
(§3) 1% (v/v) DMSO in a volume of 150 µl. […]
(§4) HFXIIAB) were used at final concentrations of 0.4 nM. The reaction was pipetted as follows: 50 µl of bicyclic peptide in assay buffer were added to 50 µl of FXIIa in assay buffer and incubated for 10 minutes at 25°C before 50 µl of 150 µM fluorogenic substrate in assay buffer were added to measure the residual protease activity with an Infinite M200Pro fluorescence plate reader (excitation at 368 nm, emission at 467 nm; Tecan) for a period of 30 minutes with a read every minute at 25°C. The Tecan software i-control (version 1.1) was used for data analysis. Stock solutions of 1 mM bicyclic peptide were prepared by either dissolving the unpurified cyclization reaction with water or by dissolving purified and lyophilized peptide in water. The bicyclic peptides were serially diluted two-fold using assay buffer. Sigmoidal curves were fitted to the data using the following dose response equation (1), wherein x = peptide concentration, y = % protease activity, and p = Hill slope. IC50 values were derived from the fitted curve.
(§5) The inhibition constants (Ki) were calculated according to the equation of Cheng and Prusoff, Ki = IC50/(1+([S]0/Km), wherein IC50 is the functional strength of the inhibitor, [S]0 is the total substrate concentration, and Km is the Michaelis-Menten constant. […]
(§6) For testing the specificity of the bicyclic peptides, the following final concentrations of human serine proteases were used: tPA (Molecular Innovations) 7.5 nM, uPA (Molecular Innovations) 1.5 nM, factor XIa (Innovative Research) 6 nM, plasma kallikrein (Innovative Research) 0.25 nM, thrombin (Molecular Innovations) 1 nM, plasmin (Molecular Innovations) 2.5 nM, trypsin (Molecular Innovations) 0.05 nM, factor VIIa (Haematologic Technologies) 50 nM, factor Xa […]
(§7) (Haematologic Technologies) 6 nM, and activated protein C (APC) 5 nM. Two-fold dilutions of the peptide were prepared that ranged from 0.04 to 40 µM. The following fluorogenic substrates were used at a final concentration of 50 µM: Z-Phe-Arg-AMC (Bachem) for plasma kallikrein; Boc-Phe-Ser-Arg-AMC (Bachem) for factor XIa; Z-Gly-Gly-Arg-AMC (Bachem) for tPA, uPA, thrombin, and trypsin; H-D-Val-Leu-Lys-AMC (Bachem) for plasmin; and D-Phe-Pro-Arg-ANSNH-C4H9 (Haematologic Technologies) for FVIIa and FXa. For APC, the chromogenic substrate pyroGlu-Pro-Arg-pNA (S2366) was used at a concentration of 400 µM. […]

[2] = target: T2, tPA (Homo sapiens, UniProt P00750)
T2 construct: purchased Molecular Innovations
T2 sequence (P00750 36-562): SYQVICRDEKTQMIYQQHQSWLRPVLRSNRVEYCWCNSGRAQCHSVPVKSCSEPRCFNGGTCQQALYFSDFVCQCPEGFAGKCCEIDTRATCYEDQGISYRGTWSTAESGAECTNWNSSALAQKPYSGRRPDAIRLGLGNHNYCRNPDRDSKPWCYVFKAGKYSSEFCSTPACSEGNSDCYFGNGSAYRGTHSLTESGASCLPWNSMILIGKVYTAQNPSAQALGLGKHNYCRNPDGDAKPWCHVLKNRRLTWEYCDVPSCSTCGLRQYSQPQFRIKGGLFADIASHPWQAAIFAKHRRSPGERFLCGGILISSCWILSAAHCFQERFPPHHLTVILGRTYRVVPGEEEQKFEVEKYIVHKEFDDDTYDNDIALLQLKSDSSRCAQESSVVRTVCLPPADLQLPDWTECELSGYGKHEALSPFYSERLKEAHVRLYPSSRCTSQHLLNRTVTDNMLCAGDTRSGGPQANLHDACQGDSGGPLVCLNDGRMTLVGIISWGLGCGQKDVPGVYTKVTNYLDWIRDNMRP
Protocol: as §1, §2, §3, §4, §5, §6, §7

[3] = target: T3, thrombin (Homo sapiens, UniProt P00734)
T3 construct: nM, thrombin (Molecular Innovations) 1 nM, plasmin (Molecular Innovations) 2.5 nM, trypsin; purchased Molecular Innovations
Protocol: as §1, §2, §3, §4, §5, §6, §7

[4] = target: T4, uPA (Homo sapiens, UniProt P00749)
T4 construct: purchased Molecular Innovations
Protocol: as §1, §2, §3, §4, §5, §6, §7

[5] = inhibitor 39.0625 nM, 0.0390625 µM
[6] = inhibitor 78.125 nM, 0.078125 µM
[7] = inhibitor 156.25 nM, 0.15625 µM
[8] = inhibitor 40000 nM (40 µM), 40 µM

CC(C)C[C@@H]1NC(=O)[C@H](CCC(N)=O)NC(=O)[C@H](Cc2c[nH]cn2)NC(=O)[C@@H]2CSCCC(=O)N3CN(CN(C3)C(=O)CCSC[C@H](NC(=O)[C@@H](CO)NC(=O)[C@H](N)CCCNC(=N)N)C(=O)N[C@@H](Cc3ccc(F)cc3)C(=O)N[C@@H](CCCNC(=N)N)C(=O)N[C@@H](CC(C)C)C(=O)N3CCC[C@H]3C(=O)N2)C(=O)CCSC[C@@H](C(N)=O)NC(=O)C[C@H](CCCNC(=N)N)NC1=O [FXII900] (H-[dR][dS]C[Phe(4-F)]RLPCHQL[β3hR]C-NH2; linker 3-8-13 via TATA)
Residual activity of FXa [1, 5]: 101.787% | remaining activity at 0.0390625 µM ([1]; inhibitor 39.0625 nM, read-out: Residual activity of FXa): 94.8% | Residual activity of FXa [1, 6]: 97.2913% | remaining activity at 0.078125 µM ([1]; inhibitor 78.125 nM, read-out: Residual activity of FXa): 93.4% | Residual activity of FXa [1, 7]: 100.804% | remaining activity at 0.15625 µM ([1]; inhibitor 156.25 nM, read-out: Residual activity of FXa): 97.6% | Residual activity of FXa ([1]; inhibitor 312.5 nM, 0.3125 µM): 95.4335% | remaining activity at 0.3125 µM ([1]; inhibitor 312.5 nM, read-out: Residual activity of FXa): 95.1% | Residual activity of FXa ([1]; inhibitor 625 nM, 0.625 µM): 101.673% | remaining activity at 0.625 µM ([1]; inhibitor 625 nM, read-out: Residual activity of FXa): 97.6% | Residual activity of FXa ([1]; inhibitor 1250 nM, 1.25 µM): 99.2096% | remaining activity at 1.25 µM ([1]; inhibitor 1250 nM, read-out: Residual activity of FXa): 99.4% | Residual activity of FXa ([1]; inhibitor 2500 nM, […]): 104.071% | remaining activity at […] ([1]; inhibitor 2500 nM, read-out: Residual activity of FXa): 98.3% | Residual activity of FXa ([1]; inhibitor 5000 nM, 5 µM): 101.691% | remaining activity at 5 µM ([1]; inhibitor 5000 nM, read-out: Residual activity of FXa): 94.7% | Residual activity of FXa ([1]; inhibitor 10000 nM, 10 µM): 102.146% | remaining activity at 10 µM ([1]; inhibitor 10000 nM, read-out: Residual activity of FXa): 99.4% | Residual activity of FXa ([1]; inhibitor 20000 nM, 20 µM): 104.386% | remaining activity at 20 µM ([1]; inhibitor 20000 nM, read-out: Residual activity of FXa): 94.7% | Residual activity of FXa [1, 8]: 96.1187% and 97.9911% | remaining activity at 40 µM ([1]; inhibitor 40000 nM (40 µM), read-out: Residual activity of FXa): 97.1% | Ki ([1]; read-out: Ki FXa): > 40 µM | Ki [2]: > 40 µM | remaining activity at 0.0390625 µM ([2]; inhibitor 39.0625 nM): 95.1% | Residual activity of tPa [2, 5]: 93.3208% | remaining activity at 0.078125 µM ([2]; inhibitor 78.125 nM): 95.9% | Residual activity of tPa [2, 6]: 101.687% | remaining activity at 0.15625 µM ([2]; inhibitor 156.25 nM): 98.8% | Residual activity of tPa [2, 7]: 101.694% | remaining activity at 0.3125 µM ([2]; inhibitor 312.5 nM): 97.2% | Residual activity of tPa ([2]; inhibitor 312.5 nM, 0.3125 µM): 101.741% | remaining activity at 0.625 µM ([2]; inhibitor 625 nM): 95% | Residual activity of tPa ([2]; inhibitor 625 nM, 0.625 µM): 94.8368% | remaining activity at 1.25 µM ([2]; inhibitor 1250 nM): 101% | Residual activity of tPa ([2]; inhibitor 1250 nM, 1.25 µM): 102.859% | remaining activity at […] ([2]; inhibitor 2500 nM): 100% | Residual activity of tPa ([2]; inhibitor 2500 nM, […]): 101.452% | remaining activity at 5 µM ([2]; inhibitor 5000 nM): 87.2% | Residual activity of tPa ([2]; inhibitor 5000 nM, 5 µM): 93.856% | Residual activity of tPa ([2]; inhibitor 10000 nM, 10 µM): 102.407% and 77.7753% | remaining activity at 20 µM ([2]; inhibitor 20000 nM): 89.2% | Residual activity of tPa ([2]; inhibitor 20000 nM, 20 µM): 97.2498% | remaining activity at 40 µM ([2]; inhibitor 40000 nM (40 µM)): 97% | Residual activity of tPa [2, 8]: 94.4809% and 101.833% | Ki [3]: > 40 µM | remaining activity at 0.0390625 µM ([3]; inhibitor 39.0625 nM): 101% | Residual activity of Thrombin [3, 5]: 100% | remaining activity at 0.078125 µM ([3]; inhibitor 78.125 nM): 103% | Residual activity of Thrombin [3, 6]: 98.3135% | remaining activity at 0.15625 µM ([3]; inhibitor 156.25 nM): 105% | Residual activity of Thrombin [3, 7]: 102.594% | remaining activity at 0.3125 µM ([3]; inhibitor 312.5 nM): 104% | Residual activity of Thrombin ([3]; inhibitor 312.5 nM, 0.3125 µM): 101.218% | remaining activity at 0.625 µM ([3]; inhibitor 625 nM): 102% | Residual activity of Thrombin ([3]; inhibitor 625 nM, 0.625 µM): 96.4184% | remaining activity at 1.25 µM ([3]; inhibitor 1250 nM): 105% | Residual activity of Thrombin ([3]; inhibitor 1250 nM, 1.25 µM): 102.09% | remaining activity at […] ([3]; inhibitor 2500 nM): 103% | Residual activity of Thrombin ([3]; inhibitor 2500 nM, […]): 101.007% | remaining activity at 5 µM ([3]; inhibitor 5000 nM): 105% | Residual activity of Thrombin ([3]; inhibitor 5000 nM, 5 µM): 93.4869% | remaining activity at 10 µM ([3]; inhibitor 10000 nM): 99% | Residual activity of Thrombin ([3]; inhibitor 10000 nM, 10 µM): 98.045% | remaining activity at 20 µM ([3]; inhibitor 20000 nM): 102% | Residual activity of Thrombin ([3]; inhibitor 20000 nM, 20 µM): 95.8152% | remaining activity at 40 µM ([3]; inhibitor 40000 nM (40 µM)): 95% | Residual activity of Thrombin [3, 8]: 99.0803% and 90.0661% | Ki [4]: > 40 µM | remaining activity at 0.0390625 µM ([4]; inhibitor 39.0625 nM): 96.1% | Residual activity of uPa [4, 5]: 99.3438% | remaining activity at 0.078125 µM ([4]; inhibitor 78.125 nM): 94.9% | Residual activity of uPa [4, 6]: 99.5842% | remaining activity at 0.15625 µM ([4]; inhibitor 156.25 nM): 99.6% | Residual activity of uPa [4, 7]: 106.929% | remaining activity at 0.3125 µM ([4]; inhibitor 312.5 nM): 98.2% | Residual activity of uPa ([4]; inhibitor 312.5 nM, 0.3125 µM): 103.987% | remaining activity at 0.625 µM ([4]; inhibitor 625 nM): 98.8% | Residual activity of uPa ([4]; inhibitor 625 nM, 0.625 µM): 103.035% | remaining activity at 1.25 µM ([4]; inhibitor 1250 nM): 100% | Residual activity of uPa ([4]; inhibitor 1250 nM, 1.25 µM): 106.211% | remaining activity at […] ([4]; inhibitor 2500 nM): 101% | Residual activity of uPa ([4]; inhibitor 2500 nM, […]): 90.2133% | remaining activity at 5 µM ([4]; inhibitor 5000 nM): 99.4% | Residual activity of uPa ([4]; inhibitor 5000 nM, 5 µM): 106.237% | remaining activity at 10 µM ([4]; inhibitor 10000 nM): 96.6% | Residual activity of uPa ([4]; inhibitor 10000 nM, 10 µM): 102.075% | remaining activity at 20 µM ([4]; inhibitor 20000 nM): 96.3% | Residual activity of uPa ([4]; inhibitor 20000 nM, 20 µM): 101.698% | remaining activity at 40 µM ([4]; inhibitor 40000 nM (40 µM)): 98.7% | Residual activity of uPa [4, 8]: 97.4594% and 105.626%
